We go through 2 compounds from patent US20080175889A1, “METHOD AND COMPOSITION FOR COATING WOUNDS AND PROTECTING SKIN USING A POLYETHER POLYURETHANE SOLUTION” (priority 2007, published 2008).

The conditions of series [1]: cited from earlier work.
In series [2] the test system is rat. Conditions: cited from earlier work.
The subject of series [3] is animal's tissue. Conditions: solvent alone or containing dissolved PEPU polymer; compared to THF.
The conditions of series [4]: published literature; cited from earlier work.
For series [5] the following is noted: TWA; cited from earlier work.

Molecules are shown by their SMILES.

Turning to `CC1CCCO1` (stereo not shown) [2-MeOX, 2-methyloxolane], the “amount of solvent that can dissolve in water” value in series [1] is recorded as “approximately 14 % by weight”. Also, the “amount of water that can dissolve in the solvent” value in series [1] (water in solvent) is listed as 4%. Besides, the LD-50 result in series [2] (rat model, reported for both skin contact and inhalation) is recorded as “approximately 6 g/kg”. Besides, the “penetration into an animal's tissue after applying the solvent onto the skin” value in series [3] is recorded as “much less 2-MeOX compared to THF solvent can penetrate”.

For the compound `C1CCOC1` [THF, tetrahydrofuran], in series [1], the “amount of solvent that can dissolve in water” value is “miscible, in all proportions”. Besides, in series [4], the carcinogenicity / teratogenicity result is given as “not considered a carcinogen or a teratogen”, the genotoxicity result is “nor is it genotoxic” and the skin irritation entry is recorded as “skin irritant”. The “OSHA Permissible Exposure Limit and NIOSH Recommended Exposure limit” value in series [5] is listed as 200 ppm. Besides, the “LD-50 (rats)” value in series [2] (rats) is reported as 890 mg/kg.
